{"source": "patent US20230321123A1", "about": "“INHIBITORS OF PSEUDOMONAS AERUGINOSA VIRULENCE FACTOR LasB” (Helmholtz-Zentrum Für Infektionsforschung GmbH, priority 2020, published 2023)", "key": {"MMP-3": {"target": "MMP-3 (Homo sapiens, UniProt P08254)", "sequence (P08254 100-477)": "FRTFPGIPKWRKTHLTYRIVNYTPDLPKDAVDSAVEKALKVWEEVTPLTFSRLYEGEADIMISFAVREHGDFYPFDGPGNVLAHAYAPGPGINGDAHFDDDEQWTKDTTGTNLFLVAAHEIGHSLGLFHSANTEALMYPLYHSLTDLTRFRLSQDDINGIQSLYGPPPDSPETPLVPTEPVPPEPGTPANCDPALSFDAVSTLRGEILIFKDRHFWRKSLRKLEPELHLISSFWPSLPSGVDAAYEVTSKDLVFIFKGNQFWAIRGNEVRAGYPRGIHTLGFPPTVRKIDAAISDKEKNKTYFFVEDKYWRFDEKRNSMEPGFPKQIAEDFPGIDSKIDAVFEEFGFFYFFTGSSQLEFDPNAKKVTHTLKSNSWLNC", "experiment": "Selectivity against human off-targets: MMP-3", "format": "biochemical", "conditions": "read-out: Inhibition [%] MMP-3", "source_text": "(§1) The inhibition of zinc-containing human enzymes is described frequently for LasB inhibitors and poses a serious difficulty in the development of selective compounds. Particularly, the inhibition of matrix metalloproteases (MMPs) should be avoided. To further investigate this issue, three derivatives (the compounds of examples 1, 5 and 8) have been tested for their selectivity against several human off-targets, including six MMPs, ADAM17 (TACE), HDAC-3 and HDAC-8 (Table 4). The selectivity of the compounds is particularly high for MMPs and HDACs, whereas the inhibition of ADAM17 was considerably stronger."}, "MMP-14": {"target": "MMP-14 (Homo sapiens, UniProt P50281)", "experiment": "Selectivity against human off-targets: MMP-14", "format": "biochemical", "conditions": "read-out: Inhibition [%] MMP-14", "source_text": "as §1"}, "ADAM17 (TACE)": {"target": "ADAM17 (TACE) (Homo sapiens, UniProt P78536)", "sequence (P78536 215-824)": "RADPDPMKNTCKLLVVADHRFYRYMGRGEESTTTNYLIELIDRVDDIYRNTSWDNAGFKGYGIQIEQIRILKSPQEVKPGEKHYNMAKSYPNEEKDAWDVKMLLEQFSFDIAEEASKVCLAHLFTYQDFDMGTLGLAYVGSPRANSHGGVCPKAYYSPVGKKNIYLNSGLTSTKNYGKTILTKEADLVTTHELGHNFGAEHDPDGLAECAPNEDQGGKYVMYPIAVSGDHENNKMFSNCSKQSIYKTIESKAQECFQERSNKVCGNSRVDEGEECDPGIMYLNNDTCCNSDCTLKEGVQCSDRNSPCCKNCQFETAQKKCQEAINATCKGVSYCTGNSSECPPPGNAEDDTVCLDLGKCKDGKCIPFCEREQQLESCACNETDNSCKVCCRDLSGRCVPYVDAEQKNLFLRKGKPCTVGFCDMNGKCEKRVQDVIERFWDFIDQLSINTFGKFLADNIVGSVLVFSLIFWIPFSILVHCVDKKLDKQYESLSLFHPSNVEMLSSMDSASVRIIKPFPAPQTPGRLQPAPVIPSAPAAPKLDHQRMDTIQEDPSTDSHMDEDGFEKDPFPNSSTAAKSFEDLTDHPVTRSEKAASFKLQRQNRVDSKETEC", "experiment": "Selectivity against human off-targets: ADAM17 (TACE)", "format": "biochemical"}, "MMP-8": {"target": "MMP-8 (Homo sapiens, UniProt P22894)", "sequence (P22894 101-467)": "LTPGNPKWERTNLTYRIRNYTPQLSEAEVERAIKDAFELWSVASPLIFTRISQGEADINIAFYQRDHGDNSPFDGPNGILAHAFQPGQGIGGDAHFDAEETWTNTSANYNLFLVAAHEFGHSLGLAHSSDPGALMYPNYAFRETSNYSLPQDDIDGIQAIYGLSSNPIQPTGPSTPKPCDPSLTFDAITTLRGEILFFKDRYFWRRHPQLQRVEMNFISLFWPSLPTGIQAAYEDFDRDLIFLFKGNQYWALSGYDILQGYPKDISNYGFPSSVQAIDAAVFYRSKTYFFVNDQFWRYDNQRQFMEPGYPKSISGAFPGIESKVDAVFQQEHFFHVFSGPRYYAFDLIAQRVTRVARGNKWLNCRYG", "experiment": "Selectivity against human off-targets: MMP-8", "format": "biochemical", "conditions": "read-out: Inhibition [%] MMP-8", "source_text": "as §1"}, "MMP-2": {"target": "T1, MMP-2 (Homo sapiens, UniProt P08253)", "T1 sequence (P08253 110-660)": "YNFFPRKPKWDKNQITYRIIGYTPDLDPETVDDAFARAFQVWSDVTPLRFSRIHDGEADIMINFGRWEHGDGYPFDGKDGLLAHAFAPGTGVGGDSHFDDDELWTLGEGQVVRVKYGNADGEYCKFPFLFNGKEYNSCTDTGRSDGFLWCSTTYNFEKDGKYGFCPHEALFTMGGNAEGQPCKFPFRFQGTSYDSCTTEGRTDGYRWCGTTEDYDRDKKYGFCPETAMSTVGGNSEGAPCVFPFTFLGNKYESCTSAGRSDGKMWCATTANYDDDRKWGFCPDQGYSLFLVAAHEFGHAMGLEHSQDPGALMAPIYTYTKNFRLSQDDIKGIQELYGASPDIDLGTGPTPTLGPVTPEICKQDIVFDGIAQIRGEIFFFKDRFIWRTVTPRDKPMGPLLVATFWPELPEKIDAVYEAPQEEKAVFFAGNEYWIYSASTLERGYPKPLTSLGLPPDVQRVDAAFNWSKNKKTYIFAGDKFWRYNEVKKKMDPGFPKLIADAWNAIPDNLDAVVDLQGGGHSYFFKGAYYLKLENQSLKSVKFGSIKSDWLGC", "experiment": "Selectivity against human off-targets: MMP-2", "format": "biochemical", "conditions": "read-out: Inhibition [%] MMP-2", "source_text": "as §1"}, "MMP-7": {"target": "T2, MMP-7 (Homo sapiens, UniProt P09237)", "T2 sequence (P09237 95-267)": "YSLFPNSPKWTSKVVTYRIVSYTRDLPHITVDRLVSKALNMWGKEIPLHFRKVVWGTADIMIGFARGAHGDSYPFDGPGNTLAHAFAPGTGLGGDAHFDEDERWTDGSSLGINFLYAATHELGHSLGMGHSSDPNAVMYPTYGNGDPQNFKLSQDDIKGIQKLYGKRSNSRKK", "experiment": "Selectivity against human off-targets: MMP-7", "format": "biochemical", "conditions": "read-out: Inhibition [%] MMP-7", "source_text": "as §1"}, "MMP-1": {"target": "T3, MMP-1 (Homo sapiens, UniProt P03956)", "T3 sequence (P03956 100-469)": "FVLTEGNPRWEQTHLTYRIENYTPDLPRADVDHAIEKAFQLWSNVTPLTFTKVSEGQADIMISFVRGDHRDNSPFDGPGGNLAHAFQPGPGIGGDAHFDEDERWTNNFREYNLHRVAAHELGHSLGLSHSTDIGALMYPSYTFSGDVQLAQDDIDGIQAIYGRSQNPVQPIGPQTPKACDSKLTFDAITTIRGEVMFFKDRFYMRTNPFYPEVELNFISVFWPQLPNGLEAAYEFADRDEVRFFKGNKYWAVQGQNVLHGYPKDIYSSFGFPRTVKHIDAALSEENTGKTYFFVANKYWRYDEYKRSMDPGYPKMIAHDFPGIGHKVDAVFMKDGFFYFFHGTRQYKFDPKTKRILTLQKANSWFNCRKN", "experiment": "Selectivity against human off-targets: MMP-1", "format": "biochemical", "conditions": "read-out: Inhibition [%] MMP-1", "source_text": "as §1"}, "Cytotoxicity A549": {"experiment": "Cytotoxicity A549", "format": "cell-based", "conditions": "human", "protocol": "(§2) The compounds of examples 1 and 5 were not toxic against the cell lines HepG2, HEK293 and A549 (Table 5). Additionally, the inhibitory effect against P. aeruginosa PA14 was evaluated to exclude an antibacterial effect of the compounds of the present invention. This is important as it was the aim to target virulence and not viability of the bacteria. […]"}, "LasB": {"target": "LasB (Pseudomonas aeruginosa, UniProt Q02RJ6)", "sequence (Q02RJ6 198-498)": "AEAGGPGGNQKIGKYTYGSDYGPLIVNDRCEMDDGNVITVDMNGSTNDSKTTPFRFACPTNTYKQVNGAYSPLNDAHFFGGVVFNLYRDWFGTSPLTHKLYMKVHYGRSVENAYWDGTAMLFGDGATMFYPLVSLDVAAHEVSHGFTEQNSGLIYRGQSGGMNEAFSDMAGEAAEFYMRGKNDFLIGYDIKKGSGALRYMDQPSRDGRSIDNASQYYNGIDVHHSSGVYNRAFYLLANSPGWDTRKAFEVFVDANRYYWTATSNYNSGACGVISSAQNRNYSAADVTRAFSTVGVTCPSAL", "experiment": "biochemical", "design": "species or system P. aeruginosa"}, "HDAC-8": {"target": "T4, HDAC-8 (Homo sapiens, UniProt Q9BY41)", "T4 sequence (Q9BY41 1-377)": "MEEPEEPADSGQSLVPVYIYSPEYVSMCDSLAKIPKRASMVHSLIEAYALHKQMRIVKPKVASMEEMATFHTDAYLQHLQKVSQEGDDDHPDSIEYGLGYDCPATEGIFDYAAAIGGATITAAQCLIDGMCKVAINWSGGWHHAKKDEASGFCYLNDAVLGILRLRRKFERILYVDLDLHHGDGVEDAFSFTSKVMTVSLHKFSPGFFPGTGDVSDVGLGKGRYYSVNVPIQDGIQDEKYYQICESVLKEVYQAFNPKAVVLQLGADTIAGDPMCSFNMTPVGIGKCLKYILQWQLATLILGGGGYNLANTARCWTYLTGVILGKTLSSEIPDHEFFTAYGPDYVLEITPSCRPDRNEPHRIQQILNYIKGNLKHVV", "experiment": "Selectivity against human off-targets: HDAC-8", "format": "biochemical", "source_text": "as §1"}, "HDAC-3": {"target": "HDAC-3 (Homo sapiens, UniProt O15379)", "sequence (O15379 whole entry)": "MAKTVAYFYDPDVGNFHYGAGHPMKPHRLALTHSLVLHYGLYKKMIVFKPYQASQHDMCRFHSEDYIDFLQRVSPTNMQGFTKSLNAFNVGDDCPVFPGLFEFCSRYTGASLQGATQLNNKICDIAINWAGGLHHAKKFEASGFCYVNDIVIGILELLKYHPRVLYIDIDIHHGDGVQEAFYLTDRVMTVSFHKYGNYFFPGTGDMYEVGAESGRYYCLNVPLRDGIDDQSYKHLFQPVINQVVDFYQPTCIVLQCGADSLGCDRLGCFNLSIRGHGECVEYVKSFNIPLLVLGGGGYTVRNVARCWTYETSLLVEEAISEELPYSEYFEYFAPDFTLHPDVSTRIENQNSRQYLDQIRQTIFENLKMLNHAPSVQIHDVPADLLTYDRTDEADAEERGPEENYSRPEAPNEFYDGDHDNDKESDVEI", "sequence (Q9Y618 395-489 partner limits assumed)": "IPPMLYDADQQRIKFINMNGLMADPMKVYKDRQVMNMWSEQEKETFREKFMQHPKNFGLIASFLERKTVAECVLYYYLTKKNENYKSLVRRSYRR", "experiment": "Selectivity against human off-targets: HDAC-3", "format": "biochemical", "source_text": "as §1"}, "Cytotoxicity HEK293": {"experiment": "Cytotoxicity HEK293", "format": "cell-based", "conditions": "human", "protocol": "as §2"}, "Cytotoxicity HepG2": {"experiment": "Cytotoxicity HepG2", "format": "cell-based", "conditions": "human", "protocol": "as §2"}, "P. aeruginosa PA14": {"system": "P. aeruginosa PA14", "experiment": "PA14 inhibition (MIC, antibacterial effect)", "format": "cell-based", "protocol": "as §2"}, "COX-1": {"target": "COX-1 (Homo sapiens, UniProt P23219)", "sequence (P23219 24-599)": "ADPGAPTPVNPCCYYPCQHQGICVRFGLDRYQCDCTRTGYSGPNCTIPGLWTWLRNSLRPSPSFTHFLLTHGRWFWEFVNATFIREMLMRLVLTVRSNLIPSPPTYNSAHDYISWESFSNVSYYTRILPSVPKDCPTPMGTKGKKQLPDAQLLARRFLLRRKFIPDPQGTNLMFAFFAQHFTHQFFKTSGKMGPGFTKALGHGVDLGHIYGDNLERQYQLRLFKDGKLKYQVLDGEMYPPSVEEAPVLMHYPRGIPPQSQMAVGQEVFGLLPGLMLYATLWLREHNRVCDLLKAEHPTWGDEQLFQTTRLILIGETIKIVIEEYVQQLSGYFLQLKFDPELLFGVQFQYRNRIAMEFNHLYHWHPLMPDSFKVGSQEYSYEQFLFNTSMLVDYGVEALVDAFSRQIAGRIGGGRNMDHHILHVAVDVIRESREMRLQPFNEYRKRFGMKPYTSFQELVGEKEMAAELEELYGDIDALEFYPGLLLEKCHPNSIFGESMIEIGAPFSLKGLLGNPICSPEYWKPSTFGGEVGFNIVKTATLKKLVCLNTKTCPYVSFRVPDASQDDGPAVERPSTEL", "experiment": "Selectivity against off-targets: COX-1", "format": "biochemical"}, "[1]": {"conditions": "Pseudomonas aeruginosa, PA14; read-out: MIC PA14"}}, "note": "Like-named read-outs stand apart in the source and are kept apart here."}
{"compound": "Cc1ccc(NC(=O)C(CC(C)C)P(=O)(O)O)cc1", "note": "(centres unmarked) [Example 63, (4-Methyl-1-oxo-1-(p-tolylamino)pentan-2-yl)phosphonic acid]", "values": [{"measurement": "inhibition at 100 µM", "setting": "MMP-3; at 100 μM", "value": "< 10", "unit": "%"}, {"measurement": "inhibition at 100 µM", "setting": "MMP-14; at 100 μM", "value": "12 ± 7", "unit": "%"}, {"measurement": "IC50", "setting": "ADAM17 (TACE)", "value": "> 100", "unit": "µM"}, {"measurement": "inhibition at 100 µM", "setting": "MMP-8; at 100 μM", "value": 10, "unit": "%"}, {"measurement": "inhibition at 100 µM", "setting": "MMP-2; at 100 μM", "value": "< 10", "unit": "%"}, {"measurement": "inhibition at 100 µM", "setting": "MMP-7; at 100 μM", "value": "< 10", "unit": "%"}, {"measurement": "inhibition at 100 µM", "setting": "MMP-1; at 100 μM", "value": "< 10", "unit": "%"}, {"measurement": "IC50", "setting": "Cytotoxicity A549; A549 cells", "value": "> 100", "unit": "µM"}, {"measurement": "IC50", "setting": "LasB; IC50 against LasB", "value": "0.051 ± 0.007", "unit": "µM"}, {"measurement": "IC50", "setting": "HDAC-8", "value": "> 100", "unit": "µM"}, {"measurement": "IC50", "setting": "HDAC-3", "value": "> 100", "unit": "µM"}, {"measurement": "IC50", "setting": "Cytotoxicity HEK293; HEK293 cells", "value": "> 100", "unit": "µM"}, {"measurement": "IC50", "setting": "Cytotoxicity HepG2; HepG2 cells", "value": "> 100", "unit": "µM"}, {"measurement": "MIC", "setting": "P. aeruginosa PA14; [1]", "value": "> 100", "unit": "µM"}]}
{"compound": "O=C(Nc1ccccc1)C(S)Cc1ccccc1", "note": "(racemic) [Example 1, 2-Mercapto-N,3-diphenylpropanamide]", "values": [{"measurement": "inhibition at 100 µM", "setting": "MMP-3", "value": "< 10", "unit": "%"}, {"measurement": "inhibition at 100 µM", "setting": "MMP-14", "value": "< 10", "unit": "%"}, {"measurement": "IC50", "setting": "ADAM17 (TACE); read-out: IC50 ADAM17 (TACE)", "value": "2.2 ± 0.1", "unit": "µM"}, {"measurement": "inhibition at 100 µM", "setting": "MMP-8", "value": "34 ± 11", "unit": "%"}, {"measurement": "inhibition at 100 µM", "setting": "MMP-2", "value": "< 10", "unit": "%"}, {"measurement": "inhibition at 100 µM", "setting": "MMP-7", "value": "< 10", "unit": "%"}, {"measurement": "inhibition at 100 µM", "setting": "MMP-1", "value": "< 10", "unit": "%"}, {"measurement": "IC50", "setting": "Cytotoxicity A549; A549", "value": "> 100", "unit": "µM"}, {"measurement": "IC50", "setting": "LasB; IC50 against LasB", "value": "1.2 ± 0.1", "unit": "µM"}, {"measurement": "IC50", "setting": "HDAC-8; read-out: IC50 HDAC-8", "value": "> 100", "unit": "µM"}, {"measurement": "IC50", "setting": "HDAC-3; read-out: IC50 HDAC-3", "value": "> 100", "unit": "µM"}, {"measurement": "IC50", "setting": "Cytotoxicity HEK293; HEK293", "value": "> 100", "unit": "µM"}, {"measurement": "IC50", "setting": "Cytotoxicity HepG2; HepG2", "value": "> 100", "unit": "µM"}, {"measurement": "MIC", "setting": "P. aeruginosa PA14; Pseudomonas aeruginosa, PA14, read-out: MIC PA14", "value": "> 100", "unit": "µM"}]}
{"compound": "CC(C)CC(C(=O)N[C@H](c1cn(-c2ccc(Cl)c(Cl)c2)nn1)C(C)C)P(=O)(O)O", "note": "(mixture of isomers) [Example 170, (1-(((S)-1-(1-(3,4-dichlorophenyl)-1H-1,2,3-triazol-4-yl)-2-methylpropyl)amino)-4-methyl-1-oxopentan-2-yl)phosphonic acid]", "values": [{"measurement": "inhibition at 100 µM", "setting": "MMP-3; at 100 μM", "value": "< 10", "unit": "%"}, {"measurement": "inhibition at 100 µM", "setting": "ADAM17 (TACE); at 100 μM", "value": "< 10", "unit": "%"}, {"measurement": "inhibition at 100 µM", "setting": "MMP-2; at 100 μM", "value": "< 10", "unit": "%"}, {"measurement": "inhibition at 100 µM", "setting": "MMP-1; at 100 μM", "value": 11, "unit": "%"}, {"measurement": "IC50", "setting": "Cytotoxicity A549; A549", "value": "> 100", "unit": "µM"}, {"measurement": "IC50", "setting": "LasB; IC50 against LasB (Table 16), heteropentacycles and benzannulated heteropentacycles", "value": "60 ± 3", "unit": "µM"}, {"measurement": "inhibition at 100 µM", "setting": "COX-1", "value": "< 10", "unit": "%"}, {"measurement": "IC50", "setting": "Cytotoxicity HEK293; HEK293", "value": "> 100", "unit": "µM"}, {"measurement": "IC50", "setting": "Cytotoxicity HepG2; HepG2", "value": "> 100", "unit": "µM"}, {"measurement": "MIC", "setting": "P. aeruginosa PA14; [1]", "value": "> 100", "unit": "µM"}]}
